Assay results as given in the NIST ThermoML archive (doi:10.1021/je500917k).
Numbers after ± are expanded uncertainties.

Experiments:
[1] = 100 kPa, Liquid; for speed of sound: Frequency=2 MHz
[2] = xn = mol fraction of the nth substance listed; conditions: 100 kPa, Liquid; for speed of sound: Frequency=2 MHz

CCN1CCCC1=O [1-ethyl-2-pyrrolidinone]
[1]
Conditions | mass density [kg/m3] | speed of sound [m/s] | viscosity [mPa·s]
293.15 K | 997.71 ± 0.94 | 1512.1 ± 3.4 | 2.117 ± 0.053
303.15 K | 989.14 ± 0.94 | 1474.2 ± 3.4 | 1.771 ± 0.045
313.15 K | 980.56 ± 0.94 | 1436 ± 3.4 | 1.518 ± 0.039
323.15 K | 971.96 ± 0.94 | 1398.5 ± 3.4 | 1.299 ± 0.034

CCN1CCCC1=O [1-ethyl-2-pyrrolidinone] + CCNCCO
[2], x1 = 1
Conditions | mass density [kg/m3] | speed of sound [m/s] | viscosity [mPa·s]
293.15 K | 997.71 ± 0.94 | 1512.1 ± 3.4 | 2.117 ± 0.053
303.15 K | 989.14 ± 0.94 | 1474.2 ± 3.4 | 1.771 ± 0.045
313.15 K | 980.56 ± 0.94 | 1436 ± 3.4 | 1.518 ± 0.039
323.15 K | 971.96 ± 0.94 | 1398.5 ± 3.4 | 1.299 ± 0.034

CCNCCO [2-(ethylamino)ethanol]
[1]
Conditions | mass density [kg/m3] | speed of sound [m/s] | viscosity [mPa·s]
293.15 K | 917.79 ± 0.55 | 1442.4 ± 2.9 | 15.28 ± 0.28
303.15 K | 909.82 ± 0.56 | 1408.3 ± 2.9 | 9.59 ± 0.19
313.15 K | 901.79 ± 0.57 | 1374.5 ± 2.9 | 6.406 ± 0.13
323.15 K | 893.68 ± 0.57 | 1340.9 ± 2.9 | 4.527 ± 0.1

CNCCO [2-(methylamino)ethanol]
[1]
Conditions | mass density [kg/m3] | speed of sound [m/s] | viscosity [mPa·s]
293.15 K | 941.79 ± 0.54 | 1486.5 ± 2.9 | 13.42 ± 0.25
303.15 K | 934.02 ± 0.54 | 1454.6 ± 2.9 | 8.58 ± 0.17
313.15 K | 926.18 ± 0.55 | 1422.7 ± 2.9 | 5.869 ± 0.12
323.15 K | 918.25 ± 0.55 | 1390.9 ± 2.9 | 4.096 ± 0.092

CNCCO [2-(methylamino)ethanol] + CCN1CCCC1=O
[2], x2 = 0
Conditions | mass density [kg/m3] | speed of sound [m/s] | viscosity [mPa·s]
293.15 K | 941.79 ± 0.54 | 1486.5 ± 2.9 | 13.42 ± 0.25
303.15 K | 934.02 ± 0.54 | 1454.6 ± 2.9 | 8.58 ± 0.17
313.15 K | 926.18 ± 0.55 | 1422.7 ± 2.9 | 5.869 ± 0.12
323.15 K | 918.25 ± 0.55 | 1390.9 ± 2.9 | 4.096 ± 0.092
